Source: patent publication US20230017045A1, “PYRIDINE AND PYRIMIDINE CARBOXYLATE HERBICIDES AND METHODS OF USE THEREOF” (Dow AgroSciences LLC, priority 2017, published 2023)

Tested on: test plant species
Assay: Post-emergent herbicidal activity test (greenhouse, foliar spray, visual growth reduction)
Type: in vivo
Details: post-emergence, 336 h, ECHCG: barnyardgrass (Echinochloa crus-galli), 140 g ai/ha, 14 days after application, read-out: Visual Growth Reduction (%) 14 Days After Application, ECHCG
Procedure: Post-emergent Test: Seeds or nutlets of the desired test plant species were planted in Sun Gro Metro-Mix® 360 planting mixture, which typically has a pH of 6.0 to 6.8 and an organic matter content of about 30 percent, in plastic pots with a surface area of 64 square centimeters. In some aspects, to ensure good germination and healthy plants, a fungicide treatment and/or other chemical or physical treatment was applied. The plants were grown for 7-21 d in a greenhouse with an approximate 15 h photoperiod which was maintained at 23-29° C. during the day and 22-28° C. during the night. Nutrients and water were added on a regular basis and supplemental lighting was provided with overhead metal halide 1000-Watt lamps as necessary. Plants were used for testing when they reached the first or second true leaf stage. A weighed amount, determined by the highest rate to be tested, of each test compound was placed in a 25 mL glass vial and was dissolved in 4 mL of a 97:3 v/v mixture of acetone and DMSO to obtain concentrated stock solutions. […] The concentrated stock solutions obtained were diluted with 20 mL of an aqueous mixture containing acetone, water, isopropyl alcohol, DMSO, […] crop oil concentrate, and X-77 surfactant in a 48.5:39:10:1.5:1.0:0.02 v/v ratio to obtain spray solutions containing the application rate. Compound requirements are based upon a 12 mL application volume at a rate of 187 liters per hectare (L/ha). Formulated compounds were applied to the plant material with an overhead Mandel track sprayer equipped with […] nozzles calibrated to deliver 187 L/ha over an application area of 0.64 square meters at a spray height of 18 inches (43 cm) above the average plant canopy height. Control plants were sprayed in the same manner with the solvent blank. The treated plants and control plants were placed in a greenhouse as described above and watered by subirrigation to prevent wash-off of the test compounds. After 14 d, the condition of the test plants as compared with that of the nontreated and control plants was determined visually and scored on a scale of 0 to 100 percent where 0 corresponds to no injury and 100 corresponds to complete control. In the reporting of the results, Table A: Percent Growth Reduction Conversion Table was used.

SMILES	pest or weed control at 140 g/ha [%]
COC(=O)c1nc(-c2cccc(C(F)(F)F)c2F)ccc1Cl [F289, Methyl 3-chloro-6-(2-fluoro-3-(trifluoromethyl)phenyl)picolinate]	0 to 29
COC(=O)c1nc(-c2ccc(C3CC3)c(F)c2)ccc1Cl [F287, Methyl 3-chloro-6-(4-cyclopropyl-3-fluorophenyl) picolinate]	0 to 29

Same assay, conditions: post-emergence, 336 h, IPOHE: ivy-leaf morning glory (Ipomoea hederacea), 140 g ai/ha, 14 days after application, read-out: Visual Growth Reduction (%) 14 Days After Application, IPOHE

SMILES	pest or weed control at 140 g/ha [%]
COC(=O)c1nc(-c2cccc(C(F)(F)F)c2F)ccc1Cl [F289, Methyl 3-chloro-6-(2-fluoro-3-(trifluoromethyl)phenyl)picolinate]	45 to 59
COC(=O)c1nc(-c2ccc(C3CC3)c(F)c2)ccc1Cl [F287, Methyl 3-chloro-6-(4-cyclopropyl-3-fluorophenyl) picolinate]	60 to 74

Same assay, conditions: post-emergence, 336 h, KCHSC: kochia (Bassia scoparia), 140 g ai/ha, 14 days after application, read-out: Visual Growth Reduction (%) 14 Days After Application, KCHSC

SMILES	pest or weed control at 140 g/ha [%]
COC(=O)c1nc(-c2cccc(C(F)(F)F)c2F)ccc1Cl [F289, Methyl 3-chloro-6-(2-fluoro-3-(trifluoromethyl)phenyl)picolinate]	0 to 29
COC(=O)c1nc(-c2ccc(C3CC3)c(F)c2)ccc1Cl [F287, Methyl 3-chloro-6-(4-cyclopropyl-3-fluorophenyl) picolinate]	0 to 29

Same assay, conditions: post-emergence, 336 h, ORYSA: rice (Oryza sativa), 140 g ai/ha, 14 days after application, read-out: Visual Growth Reduction (%) 14 Days After Application, ORYSA

SMILES	pest or weed control at 140 g/ha [%]
COC(=O)c1nc(-c2cccc(C(F)(F)F)c2F)ccc1Cl [F289, Methyl 3-chloro-6-(2-fluoro-3-(trifluoromethyl)phenyl)picolinate]	0 to 29
COC(=O)c1nc(-c2ccc(C3CC3)c(F)c2)ccc1Cl [F287, Methyl 3-chloro-6-(4-cyclopropyl-3-fluorophenyl) picolinate]	0 to 29

Same assay, conditions: post-emergence, 336 h, SETFA: giant foxtail (Setaria faberi), 140 g ai/ha, 14 days after application, read-out: Visual Growth Reduction (%) 14 Days After Application, SETFA

SMILES	pest or weed control at 140 g/ha [%]
COC(=O)c1nc(-c2cccc(C(F)(F)F)c2F)ccc1Cl [F289, Methyl 3-chloro-6-(2-fluoro-3-(trifluoromethyl)phenyl)picolinate]	0 to 29
COC(=O)c1nc(-c2ccc(C3CC3)c(F)c2)ccc1Cl [F287, Methyl 3-chloro-6-(4-cyclopropyl-3-fluorophenyl) picolinate]	0 to 29

Same assay, conditions: post-emergence, 336 h, SORVU: grain sorghum (Sorghum vulgare), 140 g ai/ha, 14 days after application, read-out: Visual Growth Reduction (%) 14 Days After Application, SORVU

SMILES	pest or weed control at 140 g/ha [%]
COC(=O)c1nc(-c2cccc(C(F)(F)F)c2F)ccc1Cl [F289, Methyl 3-chloro-6-(2-fluoro-3-(trifluoromethyl)phenyl)picolinate]	0 to 29
COC(=O)c1nc(-c2ccc(C3CC3)c(F)c2)ccc1Cl [F287, Methyl 3-chloro-6-(4-cyclopropyl-3-fluorophenyl) picolinate]	0 to 29

Same assay, conditions: post-emergence, 336 h, STEME: common chickweed (Stellaria media), 140 g ai/ha, 14 days after application, read-out: Visual Growth Reduction (%) 14 Days After Application, STEME

SMILES	pest or weed control at 140 g/ha [%]
COC(=O)c1nc(-c2cccc(C(F)(F)F)c2F)ccc1Cl [F289, Methyl 3-chloro-6-(2-fluoro-3-(trifluoromethyl)phenyl)picolinate]	0 to 29
COC(=O)c1nc(-c2ccc(C3CC3)c(F)c2)ccc1Cl [F287, Methyl 3-chloro-6-(4-cyclopropyl-3-fluorophenyl) picolinate]	0 to 29

Same assay, conditions: post-emergence, 336 h, TRZAS: wheat, spring (Triticum aestivum), 140 g ai/ha, 14 days after application, read-out: Visual Growth Reduction (%) 14 Days After Application, TRZAS

SMILES	pest or weed control at 140 g/ha [%]
COC(=O)c1nc(-c2cccc(C(F)(F)F)c2F)ccc1Cl [F289, Methyl 3-chloro-6-(2-fluoro-3-(trifluoromethyl)phenyl)picolinate]	0 to 29
COC(=O)c1nc(-c2ccc(C3CC3)c(F)c2)ccc1Cl [F287, Methyl 3-chloro-6-(4-cyclopropyl-3-fluorophenyl) picolinate]	0 to 29

Same assay, conditions: post-emergence, 336 h, blackgrass (Alopecurus myosuroides), 14 Days After Application, 140 g ai/ha, read-out: Visual Growth Reduction (%) ALOMY

SMILES	pest or weed control at 140 g/ha [%]
COC(=O)c1nc(-c2cccc(C(F)(F)F)c2F)ccc1Cl [F289, Methyl 3-chloro-6-(2-fluoro-3-(trifluoromethyl)phenyl)picolinate]	0 to 29
COC(=O)c1nc(-c2ccc(C3CC3)c(F)c2)ccc1Cl [F287, Methyl 3-chloro-6-(4-cyclopropyl-3-fluorophenyl) picolinate]	0 to 29

Same assay, conditions: post-emergence, 336 h, canada thistle (Cirsium arvense), 14 Days After Application, 140 g ai/ha, read-out: Visual Growth Reduction (%) CIRAR

SMILES	pest or weed control at 140 g/ha [%]
COC(=O)c1nc(-c2cccc(C(F)(F)F)c2F)ccc1Cl [F289, Methyl 3-chloro-6-(2-fluoro-3-(trifluoromethyl)phenyl)picolinate]	30 to 44
COC(=O)c1nc(-c2ccc(C3CC3)c(F)c2)ccc1Cl [F287, Methyl 3-chloro-6-(4-cyclopropyl-3-fluorophenyl) picolinate]	0 to 29

Same assay, conditions: post-emergence, 336 h, crabgrass (Digitaria sanguinalis), 14 Days After Application, 140 g ai/ha, read-out: Visual Growth Reduction (%) DIGSA

SMILES	pest or weed control at 140 g/ha [%]
COC(=O)c1nc(-c2cccc(C(F)(F)F)c2F)ccc1Cl [F289, Methyl 3-chloro-6-(2-fluoro-3-(trifluoromethyl)phenyl)picolinate]	0 to 29
COC(=O)c1nc(-c2ccc(C3CC3)c(F)c2)ccc1Cl [F287, Methyl 3-chloro-6-(4-cyclopropyl-3-fluorophenyl) picolinate]	0 to 29

Same assay, conditions: post-emergence, 336 h, lambsquarters (Chenopodium album), 14 Days After Application, 140 g ai/ha, read-out: Visual Growth Reduction (%) CHEAL

SMILES	pest or weed control at 140 g/ha [%]
COC(=O)c1nc(-c2cccc(C(F)(F)F)c2F)ccc1Cl [F289, Methyl 3-chloro-6-(2-fluoro-3-(trifluoromethyl)phenyl)picolinate]	30 to 44
COC(=O)c1nc(-c2ccc(C3CC3)c(F)c2)ccc1Cl [F287, Methyl 3-chloro-6-(4-cyclopropyl-3-fluorophenyl) picolinate]	0 to 29

Same assay, conditions: post-emergence, 336 h, redroot pigweed (Amaranthus retroflexus), 14 Days After Application, 140 g ai/ha, read-out: Visual Growth Reduction (%) AMARE

SMILES	pest or weed control at 140 g/ha [%]
COC(=O)c1nc(-c2cccc(C(F)(F)F)c2F)ccc1Cl [F289, Methyl 3-chloro-6-(2-fluoro-3-(trifluoromethyl)phenyl)picolinate]	0 to 29
COC(=O)c1nc(-c2ccc(C3CC3)c(F)c2)ccc1Cl [F287, Methyl 3-chloro-6-(4-cyclopropyl-3-fluorophenyl) picolinate]	0 to 29

Same assay, conditions: post-emergence, 336 h, wild oat (Avena fatua), 14 Days After Application, 140 g ai/ha, read-out: Visual Growth Reduction (%) AVEFA

SMILES	pest or weed control at 140 g/ha [%]
COC(=O)c1nc(-c2cccc(C(F)(F)F)c2F)ccc1Cl [F289, Methyl 3-chloro-6-(2-fluoro-3-(trifluoromethyl)phenyl)picolinate]	0 to 29
COC(=O)c1nc(-c2ccc(C3CC3)c(F)c2)ccc1Cl [F287, Methyl 3-chloro-6-(4-cyclopropyl-3-fluorophenyl) picolinate]	0 to 29

Same assay, conditions: post-emergence, 336 h, yellow nutsedge (Cyperus esculentus), 14 Days After Application, 140 g ai/ha, read-out: Visual Growth Reduction (%) CYPES

SMILES	pest or weed control at 140 g/ha [%]
COC(=O)c1nc(-c2cccc(C(F)(F)F)c2F)ccc1Cl [F289, Methyl 3-chloro-6-(2-fluoro-3-(trifluoromethyl)phenyl)picolinate]	0 to 29
COC(=O)c1nc(-c2ccc(C3CC3)c(F)c2)ccc1Cl [F287, Methyl 3-chloro-6-(4-cyclopropyl-3-fluorophenyl) picolinate]	0 to 29
